Test results as given in patent US10913736B2 (UNIVERSITY OF WASHINGTON, priority 2014, dated 2021).
≈ marks a conversion by molar mass, not a printed value. Where “and” joins values, the source holds several entries; their conditions need not be identical. Identical values can stand only once. Like-named read-outs stand apart in the source and are kept apart here.

Legend:
MetRS (T. brucei) = MetRS (T. brucei) (Trypanosoma brucei brucei, UniProt Q38C91); experiment: MetRS (T. brucei) ATP depletion assay using Kinase-Glo; format: biochemical
T. cruzi = T. cruzi growth inhibition EC50; format: cell-based
MetRS (Giardia) = MetRS (Giardia) (Giardia intestinalis, UniProt A8BY75); experiment: biochemical; conditions: read-out: D) MetRS (Giardia) aminoacylation assay with modified cpd dilution method IC50
[1] = system: Giardia intestinalis (ATCC 50580); experiment: Giardia intestinalis (ATCC 50580) growth inhibition EC50; format: cell-based
L. amaz = L. amaz growth inhibition EC50; format: cell-based; conditions: read-out: F) L. amaz EC50
MetRS (S. aureus) = MetRS (S. aureus) (Staphylococcus aureus, UniProt Q5HII6); experiment: biochemical; conditions: ATP depletion, Kinase-Glo; read-out: H) MetRS (S. aureus) ATP depletion assay using Kinase-Glo with modified cpd dilution method, IC50
E. faecium (ATCC 51559) = E. faecium (ATCC 51559) MIC/EC50; format: cell-based
T. brucei = experiment: Growth inhibition assay of T. brucei cell cultures (Alamar Blue, 48 h); format: cell-based
S. aureus (ATCC 29213) = S. aureus (ATCC 29213) MIC/EC50; format: cell-based; conditions: Staphylococcus aureus, ATCC29213; S. aureus ATCC 29213; read-out: I) S. aureus (ATCC 29213) MIC/EC50, MIC
[2] = system: S. aureus MRSA (ATCC 43300); experiment: S. aureus MRSA (ATCC 43300) MIC/EC50; format: cell-based; conditions: Staphylococcus aureus; S. aureus MRSA ATCC 43300; read-out: J) S. aureus MRSA (ATCC 43300) MIC/EC50, MIC
[3] = Trypanosoma cruzi; read-out: C) T. cruzi EC50
[4] = Trypanosoma brucei; read-out: B) T. brucei EC50

MetRS (T. brucei), sequence (Q38C91 entry or part of it): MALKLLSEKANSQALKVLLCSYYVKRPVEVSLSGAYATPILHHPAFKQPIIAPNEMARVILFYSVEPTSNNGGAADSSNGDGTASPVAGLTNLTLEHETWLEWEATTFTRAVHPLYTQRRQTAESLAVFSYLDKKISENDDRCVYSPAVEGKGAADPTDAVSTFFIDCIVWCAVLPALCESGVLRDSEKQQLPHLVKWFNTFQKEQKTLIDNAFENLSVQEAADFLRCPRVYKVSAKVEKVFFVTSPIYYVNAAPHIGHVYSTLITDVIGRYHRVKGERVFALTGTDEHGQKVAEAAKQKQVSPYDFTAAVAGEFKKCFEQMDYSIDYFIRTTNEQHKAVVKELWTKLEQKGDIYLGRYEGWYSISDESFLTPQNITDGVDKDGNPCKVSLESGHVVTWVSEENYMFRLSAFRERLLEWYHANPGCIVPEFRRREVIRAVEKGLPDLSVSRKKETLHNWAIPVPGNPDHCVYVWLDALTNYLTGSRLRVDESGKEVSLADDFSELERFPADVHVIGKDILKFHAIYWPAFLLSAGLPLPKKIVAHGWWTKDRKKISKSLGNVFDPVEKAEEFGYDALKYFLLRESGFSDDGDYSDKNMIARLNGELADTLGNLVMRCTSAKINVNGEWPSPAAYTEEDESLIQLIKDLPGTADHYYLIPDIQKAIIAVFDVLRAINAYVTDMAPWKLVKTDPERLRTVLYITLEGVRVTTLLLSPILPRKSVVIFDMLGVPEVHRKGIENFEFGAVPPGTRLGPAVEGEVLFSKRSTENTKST
MetRS (S. aureus), sequence (Q5HII6 whole entry): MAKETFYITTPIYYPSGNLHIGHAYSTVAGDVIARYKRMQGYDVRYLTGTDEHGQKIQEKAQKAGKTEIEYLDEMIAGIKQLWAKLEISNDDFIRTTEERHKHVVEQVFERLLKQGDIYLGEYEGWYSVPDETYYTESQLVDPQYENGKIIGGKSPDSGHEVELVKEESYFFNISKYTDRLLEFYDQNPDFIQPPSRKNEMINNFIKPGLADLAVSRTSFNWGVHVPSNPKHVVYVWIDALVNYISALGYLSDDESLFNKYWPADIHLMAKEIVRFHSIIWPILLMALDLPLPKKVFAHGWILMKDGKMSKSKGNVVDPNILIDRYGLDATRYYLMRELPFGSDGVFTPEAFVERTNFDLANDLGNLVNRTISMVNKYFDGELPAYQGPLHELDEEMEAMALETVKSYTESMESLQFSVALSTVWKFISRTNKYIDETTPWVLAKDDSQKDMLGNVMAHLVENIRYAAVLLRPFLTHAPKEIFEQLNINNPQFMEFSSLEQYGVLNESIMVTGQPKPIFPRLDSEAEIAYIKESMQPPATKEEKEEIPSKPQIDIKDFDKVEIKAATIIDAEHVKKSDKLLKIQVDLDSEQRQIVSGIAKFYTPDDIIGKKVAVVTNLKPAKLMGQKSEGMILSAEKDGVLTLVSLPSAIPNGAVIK
MetRS (Giardia), sequence (A8BY75 entry or part of it): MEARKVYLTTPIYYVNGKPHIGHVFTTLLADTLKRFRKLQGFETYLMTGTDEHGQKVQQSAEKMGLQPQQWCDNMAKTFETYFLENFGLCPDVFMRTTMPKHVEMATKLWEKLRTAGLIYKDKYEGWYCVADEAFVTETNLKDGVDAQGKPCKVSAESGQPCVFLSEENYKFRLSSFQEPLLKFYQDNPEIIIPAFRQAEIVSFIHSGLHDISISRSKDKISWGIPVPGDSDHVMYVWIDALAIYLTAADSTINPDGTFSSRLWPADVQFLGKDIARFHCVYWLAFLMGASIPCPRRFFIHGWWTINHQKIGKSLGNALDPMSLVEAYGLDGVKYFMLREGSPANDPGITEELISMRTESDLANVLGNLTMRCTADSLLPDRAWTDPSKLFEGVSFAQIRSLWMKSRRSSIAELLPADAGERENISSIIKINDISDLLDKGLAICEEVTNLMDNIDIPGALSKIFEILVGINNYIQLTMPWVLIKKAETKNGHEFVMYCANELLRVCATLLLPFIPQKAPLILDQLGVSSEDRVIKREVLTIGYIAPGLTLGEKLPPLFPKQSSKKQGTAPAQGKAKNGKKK

| Structure (SMILES) | IC50 (MetRS (T. brucei)) [nM] | EC50 (T. cruzi; [3]) [nM] | EC50 (T. cruzi; read-out: C) T. cruzi EC50) [nM] | IC50 (MetRS (Giardia)) [nM] | EC50 ([1]; Giardia duodenalis, ATCC50580; read-out: E) Giardia intestinalis (ATCC 50580) EC50) [nM] | EC50 ([1]; read-out: E) Giardia intestinalis (ATCC 50580) EC50) [nM] | EC50 (L. amaz) | IC50 (MetRS (S. aureus)) [nM] | L) E. faecium (ATCC 51559) MIC/EC50, MIC (E. faecium (ATCC 51559)) [µg/mL] | EC50 (T. brucei; [4]) [nM] | MIC (S. aureus (ATCC 29213)) [µg/mL] | MIC [2] [µg/mL] | EC50 (T. brucei; read-out: B) T. brucei EC50) [nM] |
| --- | --- | --- | --- | --- | --- | --- | --- | --- | --- | --- | --- | --- | --- |
| Fc1ccc2nc(NCCCN[C@@H]3CCOc4c(Cl)cc(Cl)cc43)[nH]c2n1 [Compound 1709, (4R)-6,8-dichloro-N-[3-({5-fluoro-3H-imidazo[4,5-b]pyridin-2-yl}amino)propyl]-3,4-dihydro-2H-1-benzopyran-4-amine] | 8 | > 4.57 | 5.05 | 2 | 664 | 492 | 1300 nM and 1130 nM | 19 | >0.04 | – | – | – | – |
| O=C(Cc1cc(Cl)cc(Cl)c1)N1CCCC(c2nc3nc(F)ccc3[nH]2)C1 (stereo not drawn) [Compound 1761, 2-(3,5-dichlorophenyl)-1-(3-(5-fluoro-1H-imidazo[4,5-b]pyridin-2-yl)piperidin-1-yl)ethanone] | 54 | > 5000 | – | – | – | – | – | 1910 | – | 996 | > 10 | > 10 | – |
| O=C(NCc1nc2ccc(F)nc2[nH]1)OCCc1ccc(Cl)cc1Cl [Compound 1707, 2-(2,4-dichlorophenyl)ethyl N-({5-fluoro-3H-imidazo[4,5-b]pyridin-2-yl}methyl)carbamate] | 26 | > 10000 | – | – | – | – | > 1000 nM | 37 | – | 1610 | – | – | – |
| Clc1cc(Cl)cc(CNCCc2nc3ccc(Cl)cc3[nH]2)c1 [Compound 1767, [2-(6-chloro-1H-1,3-benzodiazol-2-yl)ethyl][(3,5-dichlorophenyl)methyl]amine] | 51 | 2930 | – | – | – | – | – | > 1000 | – | 627 | > 10 | 10 (≈ 28.2 µM) | – |
| C[C@@H](CNCc1cc(Cl)cc(Cl)c1)CNc1nc2cccnc2[nH]1 [Compound 1655, (S)-N1-(3,5-dichlorobenzyl)-N3-(1H-imidazo[4,5-b]pyridin-2-yl)-2-methylpropane-1,3-diamine] | 43 | 709 | – | – | – | – | 6740 nM | 171 | – | 11.3 | 10 (≈ 27.5 µM) | 10 (≈ 27.5 µM) | 7.97 |
| O=c1[nH]c(Cc2ccc(Cl)cc2Cl)cn1Cc1nc2ccccc2[nH]1 [Compound 1907, 3-((1H-benzo[d]imidazol-2-yl)methyl)-5-(2,4-dichlorobenzyl)-1H-imidazol-2(3H)-one] | 19 | 7670 | – | – | – | – | > 1000 nM | 54 | – | 346 | – | – | – |
| O=C(/C=C/Oc1ccc(Cl)cc1Cl)NCc1nc2ccc(F)nc2[nH]1 [Compound 1768, 3-(2,4-Dichloro-phenoxy)-N-(5-fluoro-3H-imidazo[4,5-b]pyridin-2-ylmethyl)-acrylamide] | 18 | 1690 | – | – | – | – | > 1000 nM | 30 | – | 70.2 | > 10 | > 10 | – |
| O=c1c(NCc2nc3ccccc3[nH]2)c(NCc2ccc(Cl)cc2Cl)c1=O [Compound 1769, 3-[(H-Benzoimidazol-2-ylmethyl)-amino]-4-(2,4-dichloro-benzylamino)-cyclobut-3-ene-1,2-dione] | 11 | > 5000 | – | – | – | – | – | 95 | – | 1070 | > 10 | > 10 | – |
| FC(F)(CNCc1cc(Cl)cc(Cl)c1)CNc1nc2cccnc2[nH]1 [Compound 1708, [(3,5-dichlorophenyl)methyl][2,2-difluoro-3-({3H-imidazo[4,5-b]pyridin-2-yl}amino)propyl]amme] | 11 | > 5000 | – | – | – | – | > 1000 nM | 88 | – | 1560 | – | – | 893 |
| O=C(Cc1cc(Cl)cc(Cl)c1)N1CCCC(c2nc3nc(Cl)ccc3[nH]2)C1 (stereo not drawn) [Compound 1762, 1-(3-(5-chloro-1H-imidazo[4,5-b]pyridin-2-yl)piperidin-1-yl)-2-(3,5-dichlorophenyl)ethanone] | 28 | – | – | – | – | – | – | 2880 | – | 1060 | > 10 | > 10 | – |
| C[C@@H](CNCc1cc(Cl)cc(Cl)c1)CNc1nc2nc(F)ccc2[nH]1 [Compound 1673, [(3,5-dichlorophenyl)methyl][(2S)-3-({5-fluoro-3H-imidazo[4,5-b]pyridin-2-yl}amino)-2-methylpropyl]amine] | 11 | 1540 | – | – | – | – | 7860 nM and 5710 nM and 8280 nM | 113 | – | – | 5 (≈ 13.1 µM) | 5 (≈ 13.1 µM) | – |
